According to US11696903B2, “Compounds and methods for scavenging dicarbonyl electrophiles” (VANDERBILT UNIVERSITY, priority 2019, dated 2023):
Entries after “also recorded” stand apart in the source; their conditions may differ.

How the values were obtained:
[1] = test system: Mongolian gerbils infected with Hp 7.13; assay: Gastric cancer development in Mongolian gerbils infected with Hp 7.13; format: in vivo; conditions: gerbils infected with Hp 7.13, EtSA 0.75% in water
Method: (§1) As discussed further in the Examples, the human gastric epithelial cell line AGS was infected with Hp PMSS1±10 mM EtSA. FVB/N insulin-gastrin (INS-GAS) mice and Mongolian gerbils were infected for 8 wk with Hp PMSS1 and 7.13, respectively; EtSA (0.75% in water) was given to animals beginning one wk post-infection. Lys-LG adducts, a marker of electrophile reactions, and EtSA were quantified by LC/EST/MS/MS. Histology was analyzed on H&E staining. DNA damage was evaluated by pH2AX staining. Hp colonization was quantified by culture. Mucosal immune responses were determined by RNA profiling and by Luminex assay. Mice were imaged using PET/CT with ^18F-FDG (inflammation marker) and ^18F—NaF (tumor marker).

mucosal immune responses = assay: Gastritis and mucosal cytokines/chemokines in infected INS-GAS mice; format: in vivo; conditions: EtSA
Method: as §1

[2] = EtSA in gastric tissues (LC/ESI/MS/MS); format: in vivo, INS-GAS mice; conditions: EtSA in drinking water
Method: (§2) FIGS. 16A, 16B, 16C, 16D, 16E, and 16F show INS-GAS mice (8 per group) were infected or not with H. pylori strain PMS for 8 weeks and then treated with EtSA (7.5 mg/ml) one week after infection. (A) EtSA concentration in gastric tissues; **P<0.01, ****P<0.0001 vs. mice without EtSA. (B) Frequency of diagnoses. IMC, intramucosal carcinoma; LGD, low grade dysplasia; ND, no dysplasia. (C) Quantification of extent of dysplasia and cancer as a percentage of tissue sections. (D) H&E staining of INS-GAS mouse stomach tissues, showing carcinoma in an infected mouse; scale bar, 50 μm. In B and C, *P<0.05, **P<0.01 vs. infected mice.
as §1, with “marker). […]” for “marker).”

[3] = test system: INS-GAS mice infected with H. pylori; assay: H. pylori-induced gastric dysplasia and carcinoma in INS-GAS mice; format: in vivo
Method: as §2, §1
(§3) The effect of a scavenger of levuglandins and other dicarbonyls was investigated in transgenic INS-GAS mice, which have high circulating gastrin levels and develop atrophic gastritis, and dysplasia and carcinoma with H. pylori infection. Mice were infected with H. pylori, and then EtSA was administered in drinking water, starting 7 days after infection. After 8 weeks, EtSA levels were measured in the gastric tissues of uninfected and infected mice receiving this compound (FIG. 16A). […] There was no dysplasia or carcinoma in uninfected mice (FIG. 16D).

[4] = test system: DNA-histone interaction (histone H4) in A549 cells; assay: Salt fractionation of A549 nuclei, histone H4 solubility; format: cell-based, human; conditions: A549, 500 μM EtSA 45 min prior to 20 μM AA
Method: FIG. 14. LG-lysyl adduct formation on histone H4 decreases DNA-histone interaction. A549 cells were stimulated and given DMSO vehicle (C lanes) or 20 μM AA for 1 h (A lanes). A subgroup of cells was treated with 500 μM EtSA 45 min prior to adding AA (E lanes). Nuclei were extracted with 0.6, 0.9, or 1.2 M NaCl buffer, and the supernatant evaluated by Western blotting for histone H4. Shown is a representative Western blot (A) as well as the pooled results of 4 experiments (B). Different exposure times may have been used for the 0.9 M and 1.2 M bands. ***, p<0.001 by one-way ANOVA followed by Tukey's multiple comparisons post-test. NS, not significant.
60-80% confluent A549 cells were stimulated and treated with AA±500 μM EtSA before scraping cells in lysis media for nuclear isolation as above. After addition of Tritox X-100 and vortexing, 1.5 mL of each sample was aliquoted into an eppendorf and centrifuged to separate nuclei. Pellets were washed with PBS and all buffer removed. Nuclear pellets were resuspended in extraction buffer containing 0.6M, 0.9M, 1.2M or 1.5M NaCl (with 10 mM Tris, pH 7.5, 3 mM MgCl2, 0.5% NP-40, and protease inhibitor cocktail) and incubated 10 min on ice. […] This was sonicated, denatured at 95° C., and analyzed by SDS-PAGE and Western blotting, using Ponceau stain to visualize proteins and confirm equal loading, and anti-H4 antibody (Abeam, Cambridge, Mass.). […]

H. pylori = assay: Hp gastric colonization quantified by culture; format: in vivo, Helicobacter pylori; conditions: INS-GAS mice, EtSA treatment
Method: as §1, §3

[5] = H. pylori-infected INS-GAS mice treated with EtSA, 8 weeks, 37.5% without EtSA

With `CCc1ccc(O)c(CN)c1` [EtHOBA, 5-ethyl-2-hydroxybenzylamine] the “frequency of gastric cancer development” value [1] was “reduced”, the histologic gastritis (mucosal immune responses) was “not affected” and the “tissue cytokines and chemokines” value (mucosal immune responses) was “not affected”. The “EtSA bioavailability in the stomach” value [2] was “bioavailable in the stomach”, the development of carcinoma [3, 5] was 0% and the development of dysplasia [3, 5] was 14.3%. The “extent of dysplasia and carcinoma” value ([3]; Hp-infected INS-GAS mice treated with EtSA, percentage of gastric mucosa) was “significantly attenuated; also recorded: decreases”, the “frequency of intramucosal carcinoma” value ([3]; Hp-infected INS-GAS mice treated with EtSA, 69% without EtSA, p<0.05) was 28% and the “elution of histone H4 at lower salt concentrations after AA” value [4] was “reversed”. The Hp colonization (H. pylori) was “not reduced; also recorded: not affected”.
